Data reported in PubChem BioAssay (NCI).
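Step 1: Grow cells in 96-well plates. Step 2: Expose to compound for 48 hours at 5 concentrations. Step 3: Interpolate endpoints linearly; if unreached, use highest concentration. Here, GI50 denotes the concentration required for 50% inhibition of growth. At the TGI there is no net growth.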

Key:
Assay in all cases: NCI anticancer screen, dose series, 48 h
[1] = tested on: NCI/ADR-RES ovarian
[2] = tested on: NCI-H226 lung
[3] = tested on: MCF7 breast
[4] = tested on: A498 renal
[5] = tested on: MOLT-4 leukemia
[6] = tested on: DU-145 prostate
[7] = tested on: RXF 393 renal
[8] = tested on: IGROV1 ovarian
[9] = tested on: A549 NSCLC
[10] = tested on: NCI-H23 lung

Structure (SMILES) | GI50 [1] [µM] | TGI [1] [µM] | GI50 [2] [µM] | TGI [2] [µM] | GI50 [3] [µM] | TGI [3] [µM] | GI50 [4] [µM] | TGI [4] [µM] | GI50 [5] [µM] | TGI [5] [µM] | GI50 [6] [µM] | TGI [6] [µM] | GI50 [7] [µM] | TGI [7] [µM] | GI50 [8] [µM] | TGI [8] [µM] | GI50 [9] [µM] | TGI [9] [µM] | GI50 [10] [µM] | TGI [10] [µM]
CC(C)(C)c1cc(-c2nc3c(F)c(F)c(F)c(F)c3[nH]2)cc(C(C)(C)C)c1O | > 100 | > 100 | > 100 | > 100 | > 100 | > 100 | > 100 | > 100 | > 100 | > 100 | > 100 | > 100 | > 100 | > 100 | > 100 | > 100 | > 100 | > 100 | – | –
COc1cc(C)c(NC(=O)CN(C)C)cc1Nc1nc(Nc2cccc(F)c2C(N)=O)c2cc[nH]c2n1 | 2.64 | 7.59 | 2.6 | 7.24 | 0.0138 | 2.9 | 1.25 | 6.02 | 1.09 | 25 | 0.826 | 3.7 | 1.42 | 5.9 | 1.91 | 5.81 | 0.945 | 4.82 | 0.586 | 6.02
O=C(O)CCSC(=S)Nc1ccc([N+](=O)[O-])cc1 | – | > 100 | – | > 100 | – | > 100 | – | > 100 | – | > 68 | – | > 100 | – | > 100 | – | > 100 | – | > 100 | – | > 100
Fc1cccc(-c2[nH]nc3nc(Nc4cccnc4)sc23)c1 | 1.83 | > 100 | > 100 | > 100 | 0.708 | > 100 | > 100 | > 100 | 9.13 | > 100 | 4.71 | 24.8 | 3.1 | > 100 | 11.7 | > 100 | 4.18 | > 100 | 23 | > 100
COC1=C(OC)[C@]2(OC)c3c(O)c(OC)c4c(c3O[C@@]23O[C@@H](c2ccccc2)CC=C3C1=O)[C@@H](O)C[C@H](c1ccccc1)O4 | 0.688 | 3.39 | 0.286 | 1.46 | 0.321 | 1.67 | 0.348 | 2.35 | 0.0852 | 0.354 | 2.23 | 4.56 | 0.199 | 0.406 | 0.932 | 2.44 | 2.01 | 4.39 | – | –
Nc1ccc(-c2ccc(-c3nc4cc(Cl)c(Cl)cc4[nH]3)cc2)cc1 | 3.6 | > 79.2 | 4.07 | > 41.7 | 0.377 | > 100 | 18 | > 70.7 | 1.66 | > 85 | 2.36 | 98.4 | 5.71 | 38.8 | 12.1 | > 100 | 1.46 | > 100 | 20.1 | > 100
CCCCCC/C=C1\CCC(CN(C)C)C1=O (centres undefined) | – | 44.4 | – | 36.5 | – | 14.7 | – | 32.1 | – | 18.7 | – | 41.3 | – | 9.8 | – | 26.5 | – | 36.9 | – | 23.2
N#CSc1ccc(S(N)(=O)=O)cc1 | – | > 100 | – | > 100 | – | > 100 | – | > 100 | – | 29.6 | – | > 100 | – | 70.6 | – | > 100 | – | > 100 | – | > 100
Oc1c(I)cc(I)cc1CN(Cc1ccccn1)Cc1ccccn1 | 1.13 | 6.46 | 1.16 | 7.48 | 0.548 | > 39.9 | 1.29 | 6.19 | 0.89 | 10.7 | 1.57 | 20.4 | 1.86 | 9.76 | 1.12 | 12.6 | 0.906 | 13.4 | 2.48 | 40.6
Cc1cc(N(CCOS(C)(=O)=O)CCOS(C)(=O)=O)ccc1C=Nc1ccc(-c2csc(-c3ccc(Br)cc3)n2)cc1 | – | 90.7 | – | 62.3 | – | 43.8 | – | 6.4 | – | > 69.5 | – | 57.4 | – | 6.55 | – | 22.5 | – | 53.1 | – | 41.7
O=S(=O)(CCCCl)SCCCCl | – | > 85.3 | – | > 100 | – | 52.5 | – | > 100 | – | 38.5 | – | > 100 | – | 57.8 | – | > 67.5 | – | > 100 | – | > 100
COc1cc(N2CCC(N3CCN(C)CC3)CC2)ccc1Nc1ncc(Cl)c(Nc2ccccc2S(=O)(=O)C(C)C)n1 | 1.29 | 5.75 | 0.461 | 2.14 | 0.114 | 6.75 | 0.263 | 1.73 | 0.809 | 5.71 | 1.46 | 7.88 | 0.6 | 1.86 | 1.39 | 9.2 | 0.402 | 2.03 | 1.05 | 8.1
Cc1ccc2c(c1)C=CC(C#N)N2C(=O)Oc1ccccc1 (centres undefined) | – | 50.6 | – | 99.9 | – | 40.2 | – | 55.4 | – | 54.9 | – | 42.7 | – | > 100 | – | > 100 | – | > 100 | – | 44.5
Oc1c(CN2CCN(c3ccccc3F)CC2)cc(Br)c2cccnc12 | 0.224 | 21.9 | 1.17 | 9.5 | 0.473 | 12.1 | 0.695 | 9.23 | 0.743 | 5.92 | 1.71 | 17.7 | 2.05 | 19.1 | 0.808 | 14.5 | 0.546 | 13 | 1.33 | 25.2
COc1ccc2nc(-c3cc4c([nH]c5ccccc54)c(-c4ccc(F)c(F)c4)n3)[nH]c2c1 | 4.22 | 64.8 | 8.91 | 42.5 | 3.23 | 17.1 | 9.84 | 56.6 | 2.03 | 7.39 | 4.13 | 17.3 | 3.46 | 13.1 | 4.62 | 34.7 | 4.05 | 17.6 | 6.56 | 27.5
C=CCSSc1ncnc2c1ncn2C1OC(CO)C(O)C1O (centres undefined) | 3.86 | > 100 | 4.14 | > 100 | 0.567 | 11.6 | 39.3 | > 100 | 1.54 | 6.75 | 1.24 | > 48.1 | 6.93 | 27.1 | 0.0257 | 0.644 | 21.9 | > 100 | 3.94 | > 74.2
Nc1nc(-c2ccccc2)cc(-c2ccc(Cl)cc2)c1-c1nc2ccccc2o1 | 11.5 | 43.4 | 14.5 | 29.2 | 2.31 | 16.2 | 16.7 | 30.3 | 5 | 20.3 | 12.8 | 26 | 21.5 | 44.6 | 12.9 | 28.5 | 14.9 | 31.4 | 23.5 | > 100
CC(=O)[O][Bi]([c]1ccccc1)[c]1ccccc1 | 19.1 | 37.5 | 18.6 | 37.5 | 2.62 | 7.97 | 18.2 | 32.4 | 2.9 | > 100 | 21.3 | 50.2 | 2.45 | 7.14 | 2.48 | 6.77 | 25.5 | 86.7 | 11.5 | 27.8
Cc1cc2nc(C(Cl)Cl)nc(-c3ccccc3)n2n1 | 3.78 | 29.9 | > 100 | > 100 | 4.06 | > 100 | 2.6 | 11.2 | 5.67 | > 100 | 1.95 | 5.41 | 2.27 | 5.75 | 5.24 | 35.1 | 2.48 | 6.45 | 3.06 | 10.9
CC[CH2][Sn]([CH2]CC)([O]C(=O)Cc1ccc(F)cc1)[O][Sn]([CH2]CC)([CH2]CC)[O]C(=O)Cc1ccc(F)cc1 | 0.574 | 1.93 | 0.243 | 0.813 | 0.105 | 1.02 | 0.149 | 0.469 | 0.0614 | 9.15 | 0.537 | 1.8 | 0.0286 | 0.126 | 0.718 | 2.04 | 1.88 | 4.71 | 0.0539 | 0.276
Nc1c2ccccc2nc2ccccc12 (tested in a mixture with another compound) | 1.74 | 6 | 1.17 | 3.03 | 1.59 | 9.72 | 1.12 | 2.62 | 2.32 | 13.1 | 2.38 | 6.51 | 1.28 | 3.27 | 2.72 | 7.89 | – | – | 1.94 | 5.68
